# Laboratory results reported in publication PMC5575254, “An allosteric ligand-binding site in the extracellular cap of K2P channels” (Nature Communications, 2017).
# Tests used:
# TREK-1 channel = molecular target: T1, TREK-1 channel (Homo sapiens, UniProt O95069); assay: Whole-cell voltage clamp of CHO cells transiently transfected with TREK-1; format: cell-based
# T1 construct: expressed in transfected cells; host or cells: CHO cells, transient transfection
# T1 sequence (O95069 1-411 isoform O95069-2): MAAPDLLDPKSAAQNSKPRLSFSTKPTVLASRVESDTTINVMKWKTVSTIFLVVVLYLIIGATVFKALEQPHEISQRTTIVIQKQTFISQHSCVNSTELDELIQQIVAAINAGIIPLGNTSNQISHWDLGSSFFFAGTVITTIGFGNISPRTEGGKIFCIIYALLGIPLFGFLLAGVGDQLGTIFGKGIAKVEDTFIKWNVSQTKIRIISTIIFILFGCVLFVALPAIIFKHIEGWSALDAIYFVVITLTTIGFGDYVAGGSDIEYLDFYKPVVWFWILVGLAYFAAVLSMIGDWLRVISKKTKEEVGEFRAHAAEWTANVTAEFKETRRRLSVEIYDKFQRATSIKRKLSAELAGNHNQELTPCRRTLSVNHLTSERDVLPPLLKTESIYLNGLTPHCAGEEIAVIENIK
# From the text: (§1) cDNA of the human TREK-1, TREK-2 and TRAAK channels were subcloned into the pEGFPN1 expression vector (Invitrogen), respectively. Mutations were introduced into TREK-1 or TRAAK by PCR using the QuickChange XL sitedirected mutagenesis kit (Agilent Technologies) and were subsequently confirmed by DNA sequencing.
# (§2) Chinese hamster ovary (CHO) cells were provided by the Cell Bank of Chinese Academy of Sciences (Shanghai, China). CHO cells were maintained in DMEM/F12 (Gibco) supplemented with 10% fetal bovine serum (Gibco) and 100 μg ml^−1 penicillin-streptomycin (Cellgro) in a humidified incubator at 37 °C (5% CO2). For electrophysiology experiments, cells plated in 35 mm tissue culture dishes (Corning Incorporated) were transiently transfected with the plasmids using PolyJet™ reagent (SignaGen) according to the manufacturer’s instructions. Primers used in this study are listed in Supplementary Table 4.
# (§3) All electrophysiological recordings were obtained using patch-clamp recordings in two different configurations: (1) whole cell for macroscopic current dose–response curves; and (2) outside-out and inside-out for macroscopic currents recordings.
# (§4) All patch-clamp recordings were conducted 36–96 h after transfection with an Axopatch-200B amplifier (Molecular Devices) at room temperature (23–25 °C). The microelectrodes fashioned from 1.5 mm thin-walled borosilicate glass with filament were pulled from Flaming/Brown type micropipette puller (P-97; SUTTER INSTRUMENT) with the resistances of 3–7 MΩ (whole cell) or 7–15 MΩ (outside-out) when filled with a solution containing (in mM): 140 KCl, 2 MgCl2, 10 EGTA, 1 CaCl2, 10 HEPES (pH 7.3, adjusted with KOH). External solution contained (in mM): 150 NaCl, 5 KCl, 0.5 CaCl2, 1.2 MgCl2, 10 HEPES (pH 7.3, adjusted with NaOH). The current signals were filtered at 1 kHz and digitized at a 10 kHz sampling frequency by using DigiData 1440 A.
# (§5) Data of whole-cell voltage clamp experiments were fitted using doseResp function. The half inhibition concentrations were derived from fits of the dose–response curves to the function:1 I/I0=A1+A2-A1/1+10^logx0-xP, where I 0 and I are current amplitudes before and after application of inhibitors; A 1 and A 2 are constants between 0 and 1; x is the concentration of inhibitor; x o is the concentration when 50% inhibition was reached (IC50), P is the Hill constant.
# TRAAK = molecular target: T2, TRAAK (Homo sapiens, UniProt Q9NYG8); assay: Whole-cell voltage clamp of CHO cells expressing TRAAK; format: cell-based; conditions: whole-cell
# T2 construct: expressed in transfected cells; host or cells: CHO cells, transient transfection
# T2 sequence (Q9NYG8 1-393): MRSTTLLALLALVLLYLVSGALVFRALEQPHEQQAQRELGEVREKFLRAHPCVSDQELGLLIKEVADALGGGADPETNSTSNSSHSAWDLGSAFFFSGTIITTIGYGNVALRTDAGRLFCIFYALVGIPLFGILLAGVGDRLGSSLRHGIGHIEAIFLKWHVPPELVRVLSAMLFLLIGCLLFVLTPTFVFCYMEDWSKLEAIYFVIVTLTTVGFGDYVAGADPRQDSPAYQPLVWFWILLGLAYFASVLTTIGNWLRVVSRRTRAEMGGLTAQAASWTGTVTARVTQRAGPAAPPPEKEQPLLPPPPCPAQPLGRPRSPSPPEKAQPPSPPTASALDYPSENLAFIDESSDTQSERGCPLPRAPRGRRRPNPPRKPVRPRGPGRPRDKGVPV
# From the text: as §1, §2, §3, §4, §5
# mutant TRAAK channels [1] = assay: Whole-cell voltage clamp of mutant TRAAK channels; format: cell-based, human; conditions: A35Q, E38T and V42Q mutants
# From the text: as §1, §2, §3
# (§6) All patch-clamp recordings were conducted 36–96 h after transfection with an Axopatch-200B amplifier (Molecular Devices) at room temperature (23–25 °C). […]
# mutant TRAAK channels [2] = tested on: T3, mutant TRAAK channels; assay: Whole-cell voltage clamp of mutant TRAAK channels; format: cell-based, human; conditions: 100 μM, L39W mutant
# T3 construct: expressed in transfected cells; host or cells: CHO cells, transient transfection
# From the text: as §1, §2, §3, §6
structure (smiles),measurement,setting,value
"CS(=O)(=O)N(CC(=O)N1CCc2ccccc2C1)c1ccc(Cl)cc1 [TKDC, N-(4-cholorphenyl)-N-(2-(3,4-dihydrosioquinolin-2(1H)-yl)-2-oxoethyl)methanesulfonamide]",effect on TREK-1 current,TREK-1 channel; perfusion with 10 μM,pronounced decreases in current
same,IC50,"TREK-1 channel; whole-cell, CHO cells, WT TREK-1, mean ± s.e.m, read-out: half-maximal inhibition concentration (IC50), TREK-1",4.9 ± 0.6 µM
same,decrease in the current,"TRAAK; TRAAK, 300 μM TKDC perfused",~ 75%
same,IC50,"TRAAK; CHO cells, WT TRAAK, mean ± s.e.m",65.9 ± 7 µM
same,TKDC-induced inhibition of mutant TRAAK versus WT,mutant TRAAK channels [1],enhanced inhibition
same,inhibitory effect on L39W TRAAK mutant versus wild type,mutant TRAAK channels [2],weaker than the TKDC-induced
